Patent US20260116868A1 (Arcus Biosciences, Inc., priority 2023, published 2026)

Biological target: T1, Cbl-b (Homo sapiens, UniProt Q13191)
T1 construct: biotin (biotinylated protein)
Test: Cbl-b probe displacement HTRF binding assay
Details: 0.4 nM Cbl-b, 150 nM BODIPY probe
How it was run: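 Compound competes with BODIPY probe (150 nM) for biotinylated Cbl-b (0.4 nM) in HEPES/NaCl/Triton/TCEP/BSA buffer; 60 min preincubation, 15 min with probe, room temperature. Tb-streptavidin HTRF read; % displacement vs DMSO and no-protein controls, IC50 from four-parameter fit.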

T1 sequence (Q13191 whole entry, species assumed): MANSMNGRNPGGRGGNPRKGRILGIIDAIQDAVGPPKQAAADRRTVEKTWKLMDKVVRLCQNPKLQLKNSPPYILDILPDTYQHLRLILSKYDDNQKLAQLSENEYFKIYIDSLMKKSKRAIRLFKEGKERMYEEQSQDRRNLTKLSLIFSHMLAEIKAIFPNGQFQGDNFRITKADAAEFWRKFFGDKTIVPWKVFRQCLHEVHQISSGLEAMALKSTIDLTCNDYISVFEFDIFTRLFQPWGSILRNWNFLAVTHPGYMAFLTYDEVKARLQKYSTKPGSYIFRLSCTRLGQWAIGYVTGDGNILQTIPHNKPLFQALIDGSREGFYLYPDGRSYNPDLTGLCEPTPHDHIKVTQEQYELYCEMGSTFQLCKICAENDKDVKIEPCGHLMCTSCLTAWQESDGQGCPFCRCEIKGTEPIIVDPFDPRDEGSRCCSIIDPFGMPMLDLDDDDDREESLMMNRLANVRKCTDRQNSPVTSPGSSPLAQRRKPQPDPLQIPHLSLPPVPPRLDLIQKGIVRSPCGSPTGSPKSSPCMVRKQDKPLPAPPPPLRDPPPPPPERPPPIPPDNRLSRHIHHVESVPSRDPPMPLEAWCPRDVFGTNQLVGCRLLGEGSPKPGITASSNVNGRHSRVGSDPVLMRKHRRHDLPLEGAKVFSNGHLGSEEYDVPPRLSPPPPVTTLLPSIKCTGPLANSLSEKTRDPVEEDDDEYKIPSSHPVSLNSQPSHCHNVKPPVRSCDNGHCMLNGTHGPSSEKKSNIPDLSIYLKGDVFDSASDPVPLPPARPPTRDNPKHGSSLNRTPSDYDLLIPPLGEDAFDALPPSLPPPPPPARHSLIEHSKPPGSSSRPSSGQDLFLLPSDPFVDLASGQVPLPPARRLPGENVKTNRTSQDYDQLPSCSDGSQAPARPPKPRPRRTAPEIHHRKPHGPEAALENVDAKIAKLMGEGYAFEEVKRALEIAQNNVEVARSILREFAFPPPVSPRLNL

SMILES	IC50 [µM]
CO[C@@H](C)CNCc1cc(C(=O)Nc2cc(-c3ccc(C#N)cc3C(=O)N3CC(F)(F)C3)cc(OC(C)C)n2)c(=O)n(C)c1 [Example 117, N-(4-{4-cyano-2-[(3,3-difluoro-1-azetidinyl)carbonyl]phenyl}-6-isopropoxy-2-pyridyl)-5-{[(S)-2-methoxypropylamino]methyl}-1-methyl-2-oxo-1,2-dihydronicotinamide]	< 0.1
COc1ccc(-c2cc(NC(=O)c3cc(CNCC(C)C)cn(C4CC4)c3=O)nc(C3CC3)c2)c(C(=O)N2CC(F)C2)c1 [Example 284]	< 0.1
O=C(Nc1cc(-c2ccc(Cl)cc2C(=O)N2CC(F)(F)C2)cc(C2CC2)n1)c1cc(CNC[C@@H]2COCCO2)cn(C2CC2)c1=O [Example 133, N-(4-{4-chloro-2-[(3,3-difluoro-1-azetidinyl)carbonyl]phenyl}-6-cyclopropyl-2-pyridyl)-1-cyclopropyl-5-[({[(R)-1,4-dioxan-2-yl]methyl}amino)methyl]-2-oxo-1,2-dihydronicotinamide]	< 0.1
CCNc1cc(-c2ccc(OC(F)F)cc2C(=O)N2CC(F)(F)C2)cc(NC(=O)c2cc(CNC[C@H](C)OC)cn(C3CC3)c2=O)n1 [Example 330]	< 0.1
C[C@@H](CC(F)(F)F)NCc1cc(C(=O)Nc2cc(-c3ccc(C#N)cc3C(=O)N3CC(F)(F)C3)cc(C3CC3)n2)c(=O)n(C2CC2)c1 [Example 243]	< 0.1
CCOc1cc(-c2ccc(F)cc2C(=O)N2CC(F)(F)C2)cc(NC(=O)c2cc(CNC[C@H](C)OC)cn(C3CC3)c2=O)n1 [Example 373]	< 0.1
COc1ccc(-c2cc(NC(=O)c3cc(CNCC(C)C)cn(C4CC4)c3=O)nc(OC(C)C)c2)c(C(=O)N2CC(F)(F)C2)c1 [Example 289]	< 0.1
COc1ccc(-c2cc(NC(=O)c3cc(CN[C@@H](C)[C@H](C)OC)cn(C4CC4)c3=O)nc(C3CC3)c2)c(C(=O)N2CC(F)(F)C2)c1 [Example 152, N-(6-Cyclopropyl-4-{2-[(3,3-difluoro-1-azetidinyl)carbonyl]-4-methoxyphenyl}-2-pyridyl)-1-cyclopropyl-5-{[(1S,2S)-2-methoxy-1-methylpropylamino]methyl}-2-oxo-1,2-dihydronicotinamide]	< 0.1
CC(C)Oc1cc(-c2ccc(F)cc2C(=O)N2CC(F)(F)C2)cc(NC(=O)c2cc(CNC[C@@H]3CCCO3)cn(C3CC3)c2=O)n1 [Example 138, N-(4-{2-[(3,3-difluoro-1-azetidinyl)carbonyl]-4-fluorophenyl}-6-isopropoxy-2-pyridyl)-1-cyclopropyl-2-oxo-5-[({[(S)-perhydro-2-furyl]methyl}amino)methyl]-1,2-dihydronicotinamide]	< 0.1
CC(C)Nc1cc(-c2c(F)cc(Cl)cc2C(=O)N2CC(F)(F)C2)cc(NC(=O)c2cc(CN[C@@H](C)C3CC3)cn(C3CC3)c2=O)n1 [Example 204]	< 0.1
CCOc1cc(-c2ccc(OC(F)F)cc2C(=O)N2CC(F)C2)cc(NC(=O)c2cc(CN[C@@H](C)C3CCC3)cn(C3CC3)c2=O)n1 [Example 247]	< 0.1
C[C@H](NCc1cc(C(=O)Nc2cc(-c3ccc(C#N)cc3C(=O)N3CC(F)(F)C3)cc(C3CC3)n2)c(=O)n(CC(F)(F)F)c1)C1CC1 [Example 188]	< 0.1
Cc1ccc(-c2cc(NC(=O)c3cc(CNC[C@@H]4CCCO4)cn(C)c3=O)nc(OC(C)C)c2)c(C(=O)N2CC(F)C2)c1 [Example 320]	< 0.1
Cn1cc(CNC[C@@H]2CCCO2)cc(C(=O)Nc2cc(-c3ccc(OC(F)F)cc3C(=O)N3CC(F)(F)C3)cc(C3CC3)n2)c1=O [Example 185]	< 0.1
Cc1ccc(-c2cc(NC(=O)c3cc(CNC[C@@H]4CCCO4)cn(C4CC4)c3=O)nc(C3CC3)c2)c(C(=O)N2CC(F)(F)C2)c1 [Example 304]	< 0.1
C[C@H](NCc1cc(C(=O)Nc2cc(-c3c(F)cc(C#N)cc3C(=O)N3CC(F)(F)C3)cc(C3CC3)n2)c(=O)n(C)c1)C1CC1 [Example 236]	< 0.1
C[C@H](N[C@@H](C)C1CC1)c1cc(C(=O)Nc2cc(-c3ccc(C#N)cc3C(=O)N3CC(F)(F)C3)cc(C3CC3)n2)c(=O)n(C2CC2)c1 [Example 328]	< 0.1
CCOc1cc(-c2ccc(Cl)cc2C(=O)N2CC(F)(F)C2)cc(NC(=O)c2cc(CNC[C@H](C)OC)cn(C3CC3)c2=O)n1 [Example 123, N-(4-{4-chloro-2-[(3,3-difluoro-1-azetidinyl)carbonyl]phenyl}-6-ethoxy-2-pyridyl)-1-cyclopropyl-5-{[(S)-2-methoxypropylamino]methyl}-2-oxo-1,2-dihydronicotinamide]	< 0.1
CC(C)Oc1cc(-c2ccc(Cl)cc2C(=O)N2CC(F)C2)cc(NC(=O)c2cc(CNC[C@@H]3CCCO3)cn(C3CC3)c2=O)n1 [Example 271]	< 0.1
CO[C@@H](C)CNCc1cc(C(=O)Nc2cc(-c3ccc(OC(F)F)cc3C(=O)N3CC(F)(F)C3)cc(C3CC3)n2)c(=O)n(C2CC2)c1 [Example 321]	< 0.1
COc1ccc(-c2cc(NC(=O)c3cc(CNC[C@@H]4CCCO4)cn(C)c3=O)nc(C3CC3)c2)c(C(=O)N2CC(F)C2)c1 [Example 319]	< 0.1

SMILES	IC50 [µM]
CCOc1cc(-c2c(F)cc(C#N)cc2C(=O)N2CC(F)(F)C2)cc(NC(=O)c2cc(CN[C@@H](C)C3CC3)cn(C)c2=O)n1 [Example 119, N-[4-[4-cyano-2-(3,3-difluoroazetidine-1-carbonyl)-6-fluorophenyl]-6-ethoxypyridin-2-yl]-5-[[[(1S)-1-cyclopropylethyl]amino]methyl]-1-methyl-2-oxopyridine-3-carboxamide]	< 0.1
CO[C@@H](C)CNCc1cc(C(=O)Nc2cc(-c3ccc(C#N)cc3C(=O)N3CC(F)(F)C3)cc(OC(C)C)n2)c(=O)n(C2CC2)c1 [Example 339]	< 0.1
O=C(Nc1cc(-c2ccc(Cl)cc2C(=O)N2CC(F)(F)C2)cc(C2CC2)n1)c1cc(CNCC2CC2)cn(C2CC2)c1=O [Example 406]	< 0.1
Cc1ccc(-c2cc(NC(=O)c3cc(CNC[C@@H]4CCCO4)cn(C4CC4)c3=O)nc(OCC(F)F)c2)c(C(=O)N2CC(F)(F)C2)c1 [Example 166]	< 0.1
CC(C)Nc1cc(-c2ccc(Cl)cc2C(=O)N2CC(F)(F)C2)cc(NC(=O)c2cc(CNC[C@@H]3CCCO3)cn(C3CC3)c2=O)n1 [Example 223]	< 0.1
C[C@H](NCc1cc(C(=O)Nc2cc(-c3c(F)cc(C#N)cc3C(=O)N3CC(F)(F)C3)cc(C3CC3)n2)c(=O)n(C2CC2)c1)C1CC1 [Example 232]	< 0.1
CO[C@@H](C)CNCc1cc(C(=O)Nc2cc(-c3ccc(OC(F)F)cc3C(=O)N3CC(F)(F)C3)cc(NC(C)C)n2)c(=O)n(C2CC2)c1 [Example 332]	< 0.1
N#Cc1ccc(-c2cc(NC(=O)c3cc(CNCCC(F)F)cn(C4CC4)c3=O)nc(C3CC3)c2)c(C(=O)N2CC(F)(F)C2)c1 [Example 381]	< 0.1
CO[C@@H](C)CNCc1cc(C(=O)Nc2cc(-c3c(F)cc(Cl)cc3C(=O)N3CC(F)(F)C3)cc(NC(C)C)n2)c(=O)n(C2CC2)c1 [Example 198]	< 0.1
O=C(Nc1cc(-c2ccc(Cl)cc2C(=O)N2CC(F)(F)C2)cc(C2CC2)n1)c1cc(CNCCCF)cn(C2CC2)c1=O [Example 136, N-(4-{4-chloro-2-[(3,3-difluoro-1-azetidinyl)carbonyl]phenyl}-6-cyclopropyl-2-pyridyl)-1-cyclopropyl-5-[(3-fluoropropylamino)methyl]-2-oxo-1,2-dihydronicotinamide]	< 0.1
COCCNCc1cc(C(=O)Nc2cc(-c3ccc(Cl)cc3C(=O)N3CC(F)(F)C3)cc(C3CC3)n2)c(=O)n(C2CC2)c1 [Example 382]	< 0.1
O=C(Nc1cc(-c2c(F)cc(Cl)cc2C(=O)N2CC(F)(F)C2)cc(C2CC2)n1)c1cc(CNCC2CC2)cn(C2CC2)c1=O [Example 148, N-(4-{4-chloro-2-[(3,3-difluoro-1-azetidinyl)carbonyl]-6-fluorophenyl}-6-cyclopropyl-2-pyridyl)-1-cyclopropyl-5-{[(cyclopropylmethyl)amino]methyl}-2-oxo-1,2-dihydronicotinamide]	< 0.1
COCCNCc1cc(C(=O)Nc2cc(-c3ccc(C#N)cc3C(=O)N3CC(F)(F)C3)cc(C3CC3)n2)c(=O)n(C)c1 [Example 187]	< 0.1
Cc1ccc(-c2cc(NC(=O)c3cc(CN[C@@H](C)C4CCC4)cn(C4CC4)c3=O)nc(OC(C)C)c2)c(C(=O)N2CC(F)C2)c1 [Example 277]	< 0.1
Cn1cc(CNC[C@@H]2CCCO2)cc(C(=O)Nc2cc(-c3ccc(C#N)cc3C(=O)N3CC(F)(F)C3)cc(C3CC3)n2)c1=O [Example 173]	< 0.1
CO[C@@H](C)CNCc1cc(C(=O)Nc2cc(-c3ccc(F)cc3C(=O)N3CC(F)(F)C3)cc(NC(C)C)n2)c(=O)n(C2CC2)c1 [Example 357]	< 0.1
CO[C@@H](C)CNCc1cc(C(=O)Nc2cc(-c3ccc(Cl)cc3C(=O)N3CC(F)C3)cc(C3CC3)n2)c(=O)n(C2CC2)c1 [Example 248]	< 0.1
CC(C)Oc1cc(-c2c(F)cc(C#N)cc2C(=O)N2CC(F)(F)C2)cc(NC(=O)c2cc(CN[C@@H](C)C3CC3)cn(C)c2=O)n1 [Example 233]	< 0.1
CC1(NCc2cc(C(=O)Nc3cc(-c4ccc(C#N)cc4C(=O)N4CC(F)(F)C4)cc(C4CC4)n3)c(=O)n(C3CC3)c2)CCC1 [Example 390]	< 0.1
COc1ccc(-c2cc(NC(=O)c3cc(CNC[C@H](C)OC)cn(C4CC4)c3=O)nc(C3CC3)c2)c(C(=O)N2CC(F)(F)C2)c1 [Example 150, N-(6-Cyclopropyl-4-{2-[(3,3-difluoro-1-azetidinyl)carbonyl]-4-methoxyphenyl}-2-pyridyl)-1-cyclopropyl-5-{[(S)-2-methoxypropylamino]methyl}-2-oxo-1,2-dihydronicotinamide]	< 0.1
COc1ccc(-c2cc(NC(=O)c3cc(CNC[C@@H]4CCCO4)cn(C4CC4)c3=O)nc(C3CC3)c2)c(C(=O)N2CC(F)C2)c1 [Example 288]	< 0.1
